# Counter-ions that a name gives are not always drawn.
# How the values were obtained:
# Format in all cases: cell-based
# [1] = target: EGFR (H773insNPH) expressing Ba/F3 stable cell line (Homo sapiens, UniProt P00533, DUP771-773, cells depend on it); assay: Cellular proliferation (Alamar Blue) assay, EGFR (H773insNPH) Ba/F3; settings: 72 hr, read-out: NPH IC50
# Experimental: Cell line details: • 1. EGFR(D770_N771insSVD) expressing Ba/F3 stable cell line • 2. EGFR (A767_dupASV) expressing Ba/F3 stable cell line • 3. A431 cells • 4. EGFR (H773insNPH) expressing Ba/F3 stable cell line • 5. HER2 (A775_G776insYVMA) expressing Ba/F3 stable cell line
# • 1. Seed cells at 5000 for A431 and 15,000 cells for Ba/F3 in 100 μL/well in complete media (for A431: DMEM with 10% FBS and for Ba/F3 cells: RPMI with 10% FBS) in 96-well tissue culture plate. Leave outer wells without cells for background measurements. Incubate at 37 degree Celsius in 5% CO2 humidified incubator for 16-18 hours. • 2. Add 0.025 ml of 5X concentration compound dilution or DMSO control. Final compound concentration range is 10-0.0005 μM prepared in 3-fold serial dilutions. Incubate for 72 hr at 37 degree Celsius in 5% CO2 humidified incubator. • 3. Add 0.0125 ml Alamar Blue™ reagent to each well with multi-channel pipette and tap gently on each side of the plate to mix. Incubate for 3 hours at 37 degree Celsius in 5% CO2 humidified incubator. • 4. […] Data analysis was performed using XLfit 5.5.0.5.
# [2] = target: EGFR(D770_N771insSVD) expressing Ba/F3 stable cell line (Homo sapiens, UniProt P00533, DUP768-770, cells depend on it); assay: Cellular proliferation (Alamar Blue) assay, EGFR(D770_N771insSVD) Ba/F3; settings: 72 hr, read-out: D770 IC50
# Chain of EGFR(D770_N771insSVD) expressing Ba/F3 stable cell line (P00533 with tags, fused parts or gaps DUP768-770): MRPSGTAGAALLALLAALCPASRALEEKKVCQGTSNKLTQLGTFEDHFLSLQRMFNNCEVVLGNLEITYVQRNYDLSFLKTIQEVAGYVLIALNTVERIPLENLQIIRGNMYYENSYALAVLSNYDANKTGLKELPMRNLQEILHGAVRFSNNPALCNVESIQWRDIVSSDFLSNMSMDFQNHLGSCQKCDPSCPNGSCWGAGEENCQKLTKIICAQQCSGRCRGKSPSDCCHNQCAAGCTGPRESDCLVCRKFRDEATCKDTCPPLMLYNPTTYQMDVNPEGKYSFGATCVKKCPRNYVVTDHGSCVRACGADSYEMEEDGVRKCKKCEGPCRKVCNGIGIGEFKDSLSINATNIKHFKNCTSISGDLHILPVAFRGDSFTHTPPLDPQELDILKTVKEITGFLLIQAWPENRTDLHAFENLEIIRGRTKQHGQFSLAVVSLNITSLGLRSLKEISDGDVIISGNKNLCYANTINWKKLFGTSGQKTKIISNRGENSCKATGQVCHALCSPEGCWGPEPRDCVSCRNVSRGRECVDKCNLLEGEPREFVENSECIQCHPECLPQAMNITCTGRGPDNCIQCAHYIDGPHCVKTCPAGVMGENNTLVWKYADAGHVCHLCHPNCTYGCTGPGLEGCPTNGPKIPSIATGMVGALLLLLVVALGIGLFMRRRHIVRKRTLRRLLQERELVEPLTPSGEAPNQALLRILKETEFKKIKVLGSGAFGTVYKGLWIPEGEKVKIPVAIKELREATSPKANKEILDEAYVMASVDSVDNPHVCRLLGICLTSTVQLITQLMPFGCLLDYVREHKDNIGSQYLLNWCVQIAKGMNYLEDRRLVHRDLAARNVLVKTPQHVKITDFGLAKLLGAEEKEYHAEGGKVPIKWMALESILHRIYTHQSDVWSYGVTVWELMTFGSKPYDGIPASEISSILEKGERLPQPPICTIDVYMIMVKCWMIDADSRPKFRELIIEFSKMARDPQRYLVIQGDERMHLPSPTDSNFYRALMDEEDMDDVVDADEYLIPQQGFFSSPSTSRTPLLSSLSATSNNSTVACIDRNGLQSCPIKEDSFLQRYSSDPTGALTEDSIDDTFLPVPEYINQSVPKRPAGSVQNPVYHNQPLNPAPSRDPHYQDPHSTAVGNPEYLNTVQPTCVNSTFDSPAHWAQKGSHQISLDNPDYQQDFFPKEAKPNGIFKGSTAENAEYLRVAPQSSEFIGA
# Outline: (§1)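 Compound treatment lasted 72 h at 37 °C across a final 10-0.0005 μM range in 3-fold steps; cell growth was measured with Alamar Blue (3 h). Ba/F3 seeded at 15,000 and A431 at 5000 cells/well.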
# A431 cells = assay: Cellular proliferation (Alamar Blue) assay, A431 cells; settings: Homo sapiens, A-431, 72 h, A431 cells; 72 hr; Alamar Blue; read-out: A431 IC50
# Outline: as §1
# [3] = target: EGFR (A767_dupASV) expressing Ba/F3 stable cell line (Homo sapiens, UniProt P00533, DUP767-769, cells depend on it); assay: Cellular proliferation (Alamar Blue) assay, EGFR (A767_dupASV) Ba/F3; settings: 72 hr, read-out: A767 IC50
# Chain of EGFR (A767_dupASV) expressing Ba/F3 stable cell line (P00533 with tags, fused parts or gaps DUP767-769): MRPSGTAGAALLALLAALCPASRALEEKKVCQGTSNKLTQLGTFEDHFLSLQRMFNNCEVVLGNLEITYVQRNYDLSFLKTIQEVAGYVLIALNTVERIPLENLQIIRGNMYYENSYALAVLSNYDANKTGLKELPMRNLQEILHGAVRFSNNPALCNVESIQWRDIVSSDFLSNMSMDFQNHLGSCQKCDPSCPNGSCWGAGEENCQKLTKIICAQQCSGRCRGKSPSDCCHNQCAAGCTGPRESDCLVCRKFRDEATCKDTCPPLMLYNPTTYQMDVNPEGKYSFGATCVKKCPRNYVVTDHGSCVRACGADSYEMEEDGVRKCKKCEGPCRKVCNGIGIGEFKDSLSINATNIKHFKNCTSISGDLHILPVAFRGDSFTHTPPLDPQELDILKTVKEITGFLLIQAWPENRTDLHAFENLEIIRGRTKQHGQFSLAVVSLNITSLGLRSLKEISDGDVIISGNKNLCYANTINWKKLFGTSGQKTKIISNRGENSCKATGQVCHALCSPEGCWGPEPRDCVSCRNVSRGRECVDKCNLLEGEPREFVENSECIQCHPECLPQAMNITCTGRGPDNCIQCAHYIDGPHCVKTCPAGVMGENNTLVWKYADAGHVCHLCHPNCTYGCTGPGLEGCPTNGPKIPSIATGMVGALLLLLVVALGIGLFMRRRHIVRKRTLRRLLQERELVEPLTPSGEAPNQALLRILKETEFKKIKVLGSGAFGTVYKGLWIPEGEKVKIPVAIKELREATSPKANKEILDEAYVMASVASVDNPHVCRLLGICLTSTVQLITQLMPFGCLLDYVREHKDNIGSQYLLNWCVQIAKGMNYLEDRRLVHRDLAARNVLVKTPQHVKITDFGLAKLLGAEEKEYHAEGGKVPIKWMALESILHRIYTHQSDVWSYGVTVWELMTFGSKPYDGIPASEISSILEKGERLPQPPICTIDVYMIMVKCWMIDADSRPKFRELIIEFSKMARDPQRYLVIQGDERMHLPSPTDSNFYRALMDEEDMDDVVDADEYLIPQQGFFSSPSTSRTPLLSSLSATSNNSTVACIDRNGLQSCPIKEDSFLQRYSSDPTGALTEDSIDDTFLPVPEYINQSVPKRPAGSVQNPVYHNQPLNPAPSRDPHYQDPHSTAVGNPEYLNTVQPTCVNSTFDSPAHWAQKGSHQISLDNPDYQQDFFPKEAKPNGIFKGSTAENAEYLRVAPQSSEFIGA
# Outline: as §1
# [4] = target: HER2 (A775_G776insYVMA) expressing Ba/F3 stable cell line (Homo sapiens, UniProt P04626, DUP772-775, cells depend on it); assay: Cellular proliferation (Alamar Blue) assay, HER2 (A775_G776insYVMA) Ba/F3; settings: HER2 (A775_G776insYVMA) Ba/F3 cells; 72 hr; Alamar Blue; read-out: YVMA IC50
# Chain of HER2 (A775_G776insYVMA) expressing Ba/F3 stable cell line (P04626 with tags, fused parts or gaps DUP772-775): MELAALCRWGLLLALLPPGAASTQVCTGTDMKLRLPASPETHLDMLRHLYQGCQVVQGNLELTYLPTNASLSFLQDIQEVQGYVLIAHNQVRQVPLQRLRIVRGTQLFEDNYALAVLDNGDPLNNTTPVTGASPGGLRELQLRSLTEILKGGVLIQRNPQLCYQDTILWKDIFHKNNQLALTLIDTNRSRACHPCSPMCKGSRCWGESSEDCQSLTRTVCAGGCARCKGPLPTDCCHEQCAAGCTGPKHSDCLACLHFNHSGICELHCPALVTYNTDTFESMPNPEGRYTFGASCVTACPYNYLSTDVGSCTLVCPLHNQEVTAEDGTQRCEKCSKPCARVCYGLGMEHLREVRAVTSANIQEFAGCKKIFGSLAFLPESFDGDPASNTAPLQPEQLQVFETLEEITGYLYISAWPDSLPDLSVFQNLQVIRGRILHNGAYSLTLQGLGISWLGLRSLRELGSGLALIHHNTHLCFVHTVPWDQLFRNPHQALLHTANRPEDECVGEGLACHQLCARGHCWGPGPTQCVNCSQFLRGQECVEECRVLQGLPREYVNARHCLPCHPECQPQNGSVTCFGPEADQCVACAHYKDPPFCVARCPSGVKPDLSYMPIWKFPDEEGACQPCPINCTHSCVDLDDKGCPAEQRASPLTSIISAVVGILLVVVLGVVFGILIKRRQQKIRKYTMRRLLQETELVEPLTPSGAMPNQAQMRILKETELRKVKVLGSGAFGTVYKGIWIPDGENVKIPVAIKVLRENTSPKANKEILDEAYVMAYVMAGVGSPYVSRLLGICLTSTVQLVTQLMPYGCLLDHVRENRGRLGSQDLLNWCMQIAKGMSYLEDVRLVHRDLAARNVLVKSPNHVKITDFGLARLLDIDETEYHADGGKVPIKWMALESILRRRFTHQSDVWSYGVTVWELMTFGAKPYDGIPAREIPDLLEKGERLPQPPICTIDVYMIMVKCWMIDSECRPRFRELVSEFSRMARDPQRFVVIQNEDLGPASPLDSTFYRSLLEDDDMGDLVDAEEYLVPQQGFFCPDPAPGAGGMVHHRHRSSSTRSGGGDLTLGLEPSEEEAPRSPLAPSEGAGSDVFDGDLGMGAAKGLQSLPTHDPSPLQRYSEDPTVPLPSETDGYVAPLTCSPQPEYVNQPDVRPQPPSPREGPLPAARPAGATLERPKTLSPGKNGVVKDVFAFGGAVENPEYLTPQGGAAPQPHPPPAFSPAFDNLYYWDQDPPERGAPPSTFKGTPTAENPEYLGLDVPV
# Outline: as §1
# Chain of EGFR (H773insNPH) expressing Ba/F3 stable cell line (P00533 with tags, fused parts or gaps DUP771-773): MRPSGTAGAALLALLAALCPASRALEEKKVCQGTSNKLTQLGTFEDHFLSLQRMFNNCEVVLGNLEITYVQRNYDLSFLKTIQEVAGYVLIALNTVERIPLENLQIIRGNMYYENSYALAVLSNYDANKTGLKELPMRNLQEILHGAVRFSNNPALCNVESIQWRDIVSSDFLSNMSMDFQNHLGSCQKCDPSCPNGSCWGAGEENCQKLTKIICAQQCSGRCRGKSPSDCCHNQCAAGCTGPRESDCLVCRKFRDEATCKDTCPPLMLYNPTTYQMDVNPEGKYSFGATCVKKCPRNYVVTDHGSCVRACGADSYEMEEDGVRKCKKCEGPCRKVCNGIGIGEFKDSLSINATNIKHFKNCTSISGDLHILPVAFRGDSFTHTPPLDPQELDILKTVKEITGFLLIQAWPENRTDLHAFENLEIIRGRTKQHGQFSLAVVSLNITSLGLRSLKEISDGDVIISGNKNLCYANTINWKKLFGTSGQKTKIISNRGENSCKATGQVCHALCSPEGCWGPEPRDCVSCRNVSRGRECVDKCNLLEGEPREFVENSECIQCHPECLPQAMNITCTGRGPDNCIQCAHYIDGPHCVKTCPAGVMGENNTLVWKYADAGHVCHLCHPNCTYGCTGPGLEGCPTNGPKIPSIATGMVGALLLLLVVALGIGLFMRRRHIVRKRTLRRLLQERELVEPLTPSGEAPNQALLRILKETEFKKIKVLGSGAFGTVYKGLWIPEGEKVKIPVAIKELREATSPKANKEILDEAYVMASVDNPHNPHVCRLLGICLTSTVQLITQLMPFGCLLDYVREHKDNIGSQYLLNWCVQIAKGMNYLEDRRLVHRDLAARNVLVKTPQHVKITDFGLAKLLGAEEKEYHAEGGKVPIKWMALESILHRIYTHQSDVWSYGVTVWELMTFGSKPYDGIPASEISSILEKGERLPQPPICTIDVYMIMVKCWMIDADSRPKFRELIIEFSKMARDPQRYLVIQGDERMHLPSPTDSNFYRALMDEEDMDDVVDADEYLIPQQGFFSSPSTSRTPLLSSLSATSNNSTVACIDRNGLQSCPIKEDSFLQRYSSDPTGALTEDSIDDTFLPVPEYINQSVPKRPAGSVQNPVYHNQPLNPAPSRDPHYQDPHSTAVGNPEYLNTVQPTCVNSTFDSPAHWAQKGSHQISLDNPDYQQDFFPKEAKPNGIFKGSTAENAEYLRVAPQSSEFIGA
SMILES,GI50 [1] [nM],GI50 [2] [nM],IC50 (A431 cells) [nM],GI50 [3] [nM],GI50 [4] [nM]
"C=CC(=O)Nc1ccc(F)c(Nc2nc(Nc3cnn(C)c3)ncc2-c2cc(F)ccc2Cl)c1 [Compound 11, N-(3-((5-(2-chloro-5-fluorophenyl)-2-((1-methyl-1H-pyrazol-4-yl)amino)pyrimidin-4-yl)amino)-4-fluorophenyl)acrylamide]",124,194,1950,262,1070
"C=CC(=O)Nc1ccc(F)c(Nc2nc(Nc3cnn(C)c3)ncc2-c2ccc(OC(F)F)c(F)c2)c1 [Compound 16, N-(3-((5-(4-(difluoromethoxy)-3-fluorophenyl)-2-((1-methyl-1H-pyrazol-4-yl)amino)pyrimidin-4-yl)amino)-4-fluorophenyl)acrylamide]",24,10,460,9,43
"C=CC(=O)Nc1ccc(F)c(Nc2nc(Nc3cnn(C)c3)ncc2-c2cnc(Cl)c(Cl)c2)c1 [Compound 17, N-(3-((5-(5,6-dichloropyridin-3-yl)-2-((1-methyl-1H-pyrazol-4-yl)amino)pyrimidin-4-yl)amino)-4-fluorophenyl)acrylamide]",96,35,75,32,42
"C=CC(=O)Nc1ccc(F)c(Nc2nc(Nc3cnn(C)c3)ncc2-c2ccc(C(F)(F)F)cc2F)c1 [Compound 21, N-(4-fluoro-3-((5-(2-fluoro-4-(trifluoromethyl)phenyl)-2-((1-methyl-1H-pyrazol-4-yl)amino)pyrimidin-4-yl)amino)phenyl)acrylamide]",261,107,> 10000,181,1030
"C=CC(=O)Nc1ccc(F)c(Nc2nc(Nc3cnn(C)c3)ncc2-c2ccc(F)c(C(F)(F)F)c2)c1 [Compound 25, N-(4-fluoro-3-((5-(4-fluoro-3-(trifluoromethyl)phenyl)-2-((1-methyl-1H-pyrazol-4-yl)amino)pyrimidin-4-yl)amino)phenyl)acrylamide]",91,102,49,87,341
"C=CC(=O)Nc1ccc(F)c(Nc2nc(Nc3cnn(C)c3)ncc2-c2cc(F)cc(F)c2)c1 [Compound 26, N-(3-((5-(3,5-difluorophenyl)-2-((1-methyl-1H-pyrazol-4-yl)amino)pyrimidin-4-yl)amino)-4-fluorophenyl)acrylamide]",31,27,443,35,112
"C=CC(=O)Nc1ccc(F)c(Nc2nc(Nc3cnn(C)c3)ncc2-c2cc(F)cc(C(F)(F)F)c2)c1 [Compound 27, N-(4-fluoro-3-((5-(3-fluoro-5-(trifluoromethyl)phenyl)-2-((1-methyl-1H-pyrazol-4-yl)amino)pyrimidin-4-yl)amino)phenyl)acrylamide]",55,35,73,31,150
"C=CC(=O)Nc1ccc(F)c(Nc2nc(Nc3cnn(C)c3)ncc2-c2cc(Cl)cc(Cl)c2)c1 [Compound 32, N-(3-((5-(3,5-dichlorophenyl)-2-((1-methyl-1H-pyrazol-4-yl)amino)pyrimidin-4-yl)amino)-4-fluorophenyl)acrylamide]",160,294,> 10000,159,1160

# The remaining compounds from weak to strong by GI50 [1], led by results:
GI50 [1] [nM],GI50 [2] [nM],IC50 (A431 cells) [nM],GI50 [3] [nM],GI50 [4] [nM],SMILES
186,85,,184,260,"C=CC(=O)Nc1ccc(F)c(Nc2nc(Nc3cnn(C)c3)ncc2-c2ccc(C(F)(F)F)c(Cl)c2)c1 [Compound 54, N-(3-((5-(3-chloro-4-(trifluoromethyl)phenyl)-2-((1-methyl-1H-pyrazol-4-yl)amino)pyrimidin-4-yl)amino)-4-fluorophenyl)acrylamide]"
103,90,2320,91,432,"C=CC(=O)Nc1ccc(F)c(Nc2nc(Nc3cnn(C)c3)ncc2-c2ccc(OC)c(Cl)c2)c1 [Compound 3, N-(3-((5-(3-chloro-4-methoxyphenyl)-2-((1-methyl-1H-pyrazol-4-yl)amino)pyrimidin-4-yl)amino)-4-fluorophenyl)acrylamide]"
102,36,84,45,124,"C=CC(=O)Nc1ccc(F)c(Nc2nc(Nc3cnn(C)c3)ncc2-c2cc(F)cc(C(F)F)c2)c1 [Compound 15, N-(3-((5-(3-(difluoromethyl)-5-fluorophenyl)-2-((1-methyl-1H-pyrazol-4-yl)amino)pyrimidin-4-yl)amino)-4-fluorophenyl)acrylamide]"
97,94,229,97,377,"C=CC(=O)Nc1ccc(F)c(Nc2nc(Nc3cnn(C)c3)ncc2-c2ccc(OC)cc2F)c1 [Compound 7, N-(4-fluoro-3-((5-(2-fluoro-4-methoxyphenyl)-2-((1-methyl-1H-pyrazol-4-yl)amino)pyrimidin-4-yl)amino)phenyl)acrylamide]"
92,50,582,34,94,"C=CC(=O)Nc1ccc(F)c(Nc2nc(Nc3cnn(C)c3)ncc2-c2cnc(OC)c(Cl)c2)c1 [Compound 31, N-(3-((5-(5-chloro-6-methoxypyridin-3-yl)-2-((1-methyl-1H-pyrazol-4-yl)amino)pyrimidin-4-yl)amino)-4-fluorophenyl)acrylamide trifluoroacetate]"
83,51,810,80,187,"C=CC(=O)Nc1ccc(F)c(Nc2nc(Nc3cnn(C)c3)ncc2-c2ccc(F)c(Cl)c2)c1 [Compound 6, N-(3-((5-(3-chloro-4-fluorophenyl)-2-((1-methyl-1H-pyrazol-4-yl)amino)pyrimidin-4-yl)amino)-4-fluorophenyl)acrylamide]"
79,30,200,39,208,"C=CC(=O)Nc1ccc(F)c(Nc2nc(Nc3cnn(C)c3)ncc2-c2ccc(F)c(F)c2)c1 [Compound 5, N-(3-((5-(3,4-difluorophenyl)-2-((1-methyl-1H-pyrazol-4-yl)amino)pyrimidin-4-yl)amino)-4-fluorophenyl)acrylamide]"
79,28,147,42,114,"C=CC(=O)Nc1ccc(F)c(Nc2nc(Nc3cnn(C)c3)ncc2-c2ccc(C)c(F)c2)c1 [Compound 13, N-(4-fluoro-3-((5-(3-fluoro-4-methylphenyl)-2-((1-methyl-1H-pyrazol-4-yl)amino)pyrimidin-4-yl)amino)phenyl)acrylamide]"
56,113,251,166,220,"C=CC(=O)Nc1ccc(F)c(Nc2nc(Nc3cnn(C)c3)ncc2-c2ccc(F)c(Br)c2)c1 [Compound 18, N-(3-((5-(3-bromo-4-fluorophenyl)-2-((1-methyl-1H-pyrazol-4-yl)amino)pyrimidin-4-yl)amino)-4-fluorophenyl)acrylamide trifluoroacetate]"
47,29,193,27,271,"C=CC(=O)Nc1ccc(F)c(Nc2nc(Nc3cnn(C)c3)ncc2-c2ccc(N(C)C)c(F)c2)c1 [Compound 28, N-(3-((5-(4-(dimethylamino)-3-fluorophenyl)-2-((1-methyl-1H-pyrazol-4-yl)amino)pyrimidin-4-yl)amino)-4-fluorophenyl)acrylamide]"
36,36,269,36,91,"C=CC(=O)Nc1ccc(F)c(Nc2nc(Nc3cnn(C)c3)ncc2-c2ccc(OC)c(F)c2)c1 [Compound 1, N-(4-fluoro-3-((5-(3-fluoro-4-methoxyphenyl)-2-((1-methyl-1H-pyrazol-4-yl)amino)pyrimidin-4-yl)amino)phenyl)acrylamide]"
